Measured values from patent US20130012432A1, “Peptides for Treatment of Obesity” (Novo Nordisk A/S, priority 2010, published 2013).
Converted amounts (≈) assume the structure as drawn. Positions of bridges follow the written chain, without caps; N, C: chain ends. Non-standard residues stand in square brackets, D forms with d. Residues, ends and D or L forms follow the SMILES beside them. Groups on a side chain read outwards from the residue. *: point of attachment. Palmitoyl(16-(5-tetrazolyl)) = O=C(CCCCCCCCCCCCCCCc1nnn[nH]1)*; Lys(CH2CO2H)2 = N[C@@H](CCCCN(CC(=O)O)CC(=O)O)C(=O)O; C18 diacid = O=C(O)CCCCCCCCCCCCCCCCC(=O)*; C16 diacid = O=C(O)CCCCCCCCCCCCCCC(=O)*; hCys = N[C@@H](CCS)C(=O)O; Orn = NCCC[C@H](N)C(=O)O; Dap = NC[C@H](N)C(=O)O; AEEA = NCCOCCOCC(=O)O

Key:
human MC4 receptor = human MC4 receptor (Homo sapiens, UniProt P32245); assay: biochemical
Experimental: Assay (V)—Melanocortin Receptor 4 (MC4) Binding Assay
In Vitro ^125NDP-α-MSH Binding to Recombinant BHK Cells Expressing Human MC4 Receptor (Filtration Assay).
The assay was performed in 5 ml minisorb vials (Sarstedt No. 55.526) or in 96-well filter-plates (Millipore MADVN 6550), and using BHK cells expressing the human MC4 receptor using BHK cells stably expressing the human MC4 receptor. The membranes were prepared from frozen or fresh cells that were homogenized in 20 mM HEPES pH 7.1, 5 mM MgCl2 and 1 mg/ml bacitracin and centrifuged at 15000 rpm at 4° C., 10 min in a Sorvall RC 5B plus, SS-34 rotor. The supernatant was discarded, and the pellets were re-suspended in buffer, homogenized and centrifuged two more times. The final pellets were resuspended in the buffer mentioned above, and the protein concentration was measured and adjusted with buffer to 14 to 17 mg/ml and the membrane preparation were kept at −80° C. until assay. The assay was run directly on a dilution of this cell membrane suspension, without any further preparation. The BHK cell membranes are kept at −80° C. until assay, and the assay is run directly on a dilution of this cell membrane suspension, without further preparation. The suspension is diluted to give maximally 10% specific binding, i.e. to approx. 50-100 fold dilution. The assay was performed in a total volume of 200 μl: 50 μl of cell suspension, 50 μl of ^125NDP-α-MSH (≈79 pM in final concentration), 50 μl of test compound and 50 μl binding buffer (pH 7) mixed and incubated for 2 h at 25° C. [binding buffer: 25 mM HEPES, pH 7.0, 1 mM CaCl2, 1 mM MgSO4, 1 mM EGTA, 0.02% Bacitracin, 0.005% Tween™ 20 and 0.1% HSA or, alternatively, 0.1% ovalbumin (Sigma; catalogue No. A-5503)]. Test compounds were dissolved in DMSO and diluted in binding buffer. Radiolabelled ligand and membranes were diluted in binding buffer. The incubation was stopped by dilution with 2×100 μl ice-cold 0.9% NaCl. The radioactivity retained on the filters was counted using a Cobra II auto gamma counter.
The data were analysed by non-linear regression analysis of binding curves, using the Windows™ program GraphPad™ Prism (GraphPad Software, USA).

MC1 receptor = MC1 receptor (Homo sapiens, UniProt Q01726); assay: biochemical
Method in brief: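 Radioligand competition on membranes (25 μg/ml) of BHK cells stably expressing MC1, with 22 pM final 125I-NDP-α-MSH in 25 mM HEPES pH 7.4, Ca/Mg, EDTA, 0.1% HSA (or ovalbumin), 0.005% Tween 20. Incubated 90 min at 30 °C, filtered over PEI-treated GF/B; curves fitted by non-linear regression.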

physchem = assay: physchem
Experimental: From a stock solution in vehicle, either H2O or 10 mM phosphate, containing 1 mg (as weighed) compound per ml, 8-11 aliquots are withdrawn and pH-adjusted individually with HCl/NaOH, to cover the whole pH range.

Sequence of human MC4 receptor (P32245 whole entry): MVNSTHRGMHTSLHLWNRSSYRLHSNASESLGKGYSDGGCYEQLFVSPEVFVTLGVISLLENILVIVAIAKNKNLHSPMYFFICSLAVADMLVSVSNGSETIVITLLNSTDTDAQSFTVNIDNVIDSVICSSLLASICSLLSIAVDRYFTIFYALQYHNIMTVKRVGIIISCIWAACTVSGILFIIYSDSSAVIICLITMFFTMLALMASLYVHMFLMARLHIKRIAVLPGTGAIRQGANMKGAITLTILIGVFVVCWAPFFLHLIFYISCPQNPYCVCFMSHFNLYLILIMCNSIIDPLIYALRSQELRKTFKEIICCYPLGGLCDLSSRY
Sequence of MC1 receptor (Q01726 whole entry): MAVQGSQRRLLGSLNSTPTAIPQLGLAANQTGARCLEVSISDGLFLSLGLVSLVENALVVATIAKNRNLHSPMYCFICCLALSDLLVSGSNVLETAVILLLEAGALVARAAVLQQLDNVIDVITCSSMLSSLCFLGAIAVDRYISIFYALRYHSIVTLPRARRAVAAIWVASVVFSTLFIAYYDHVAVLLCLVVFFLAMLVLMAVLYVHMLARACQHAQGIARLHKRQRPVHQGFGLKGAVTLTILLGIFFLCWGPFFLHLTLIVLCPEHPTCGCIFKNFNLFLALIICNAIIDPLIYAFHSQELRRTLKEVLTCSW

| SMILES | Ki (human MC4 receptor) [nM] | Ki (MC1 receptor) [nM] | solubility (physchem; pH 7.3, Solubility Conc.) [µM] | solubility (physchem; pH 7.7, Solubility Conc.) [µM] | solubility (physchem; pH 7.8, Solubility Conc.) [µM] | solubility (physchem; pH 6.3, Solubility Conc.) [µM] | solubility (physchem; pH 6.9, Solubility Conc.) [µM] | solubility (physchem; pH 7.2, Solubility Conc.) [µM] | solubility (physchem; pH 7.4, Solubility Conc.) [µM] | solubility (physchem; pH 7.5, Solubility Conc.) [µM] | solubility (physchem; pH 7.6, Solubility Conc.) [µM] | solubility (physchem; pH 7.9, Solubility Conc.) [µM] | further results |
| --- | --- | --- | --- | --- | --- | --- | --- | --- | --- | --- | --- | --- | --- |
| CC(=O)N[C@H]1CCSSC[C@@H](C(=O)N2CCC[C@H]2C(=O)N2CCC[C@H]2C(=O)N[C@@H](CCCCN)C(=O)N[C@@H](CCC(=O)O)C(=O)N[C@@H](CCCCN(CC(=O)O)CC(=O)O)C(=O)N[C@@H](CCCCNC(=O)COCCOCCNC(=O)CCCCCCCCCCCCCCC(=O)O)C(N)=O)NC(=O)[C@H](Cc2c[nH]c3ccccc23)NC(=O)[C@H](CCCNC(=N)N)NC(=O)[C@@H](Cc2ccccc2)NC(=O)[C@H](Cc2c[nH]cn2)NC1=O [Example 5, Ac-c[homoCys-His-D-Phe-Arg-Trp-Cys]-Pro-Pro-Lys-Glu-Lys(biscarboxymethyl)-Lys({2-[2-(15-carboxypentadecanoylamino)ethoxy]ethoxy}acetyl)-NH2] (Ac-[hCys]H[dF]RWCPPKE[Lys(CH2CO2H)2]K([AEEA-C16 diacid])-NH2; disulfide 1-6) | 17 | > 10000 | 496 (≈ 1060 µg/mL) | 498 (≈ 1070 µg/mL) | 509 (≈ 1090 µg/mL) | – | – | – | – | – | – | – | solubility (physchem; pH 3.8, Solubility Conc.): 486 µM (≈ 1040 µg/mL); solubility (physchem; pH 4.6, Solubility Conc.): 452 µM (≈ 968 µg/mL); solubility (physchem; pH 4.9, Solubility Conc.): 233 µM (≈ 499 µg/mL); solubility (physchem; pH 6.1, Solubility Conc.): 200 µM (≈ 428 µg/mL); solubility (physchem; pH 6.7, Solubility Conc.): 320 µM (≈ 685 µg/mL); solubility (physchem; pH 7.1, Solubility Conc.): 489 µM (≈ 1050 µg/mL) |
| CC(=O)N[C@H]1CCC(=O)NC[C@@H](C(=O)N2CCC[C@H]2C(=O)N2CCC[C@H]2C(=O)N[C@@H](CCCNC(=N)N)C(=O)N[C@@H](CC(=O)O)C(=O)N[C@@H](CCCCN(CC(=O)O)CC(=O)O)C(=O)N[C@@H](CCCCNC(=O)COCCOCCNC(=O)CCCCCCCCCCCCCCCc2nnn[nH]2)C(N)=O)NC(=O)[C@H](Cc2c[nH]c3ccccc23)NC(=O)[C@H](CCCNC(=N)N)NC(=O)[C@@H](Cc2ccccc2)NC(=O)[C@H](Cc2c[nH]cn2)NC1=O [Example 6, Ac-c[Glu-His-D-Phe-Arg-Trp-Dap]-Pro-Pro-Arg-Asp-Lys(biscarboxymethyl)-Lys[(2-{2-[16-(tetrazol-5-yl)hexadecanoylamino]ethoxy}ethoxy)acetyl]-NH2] (Ac-EH[dF]RW[Dap]PPRD[Lys(CH2CO2H)2]K([AEEA-Palmitoyl(16-(5-tetrazolyl))])-NH2; lactam 1-6) | 13 | > 10000 | – | – | 254 (≈ 552 µg/mL) | 24 (≈ 52.1 µg/mL) | 44 (≈ 95.6 µg/mL) | 82 (≈ 178 µg/mL) | 208 (≈ 452 µg/mL) | 270 (≈ 587 µg/mL) | 290 (≈ 630 µg/mL) | – | solubility (physchem; pH 5.9, Solubility Conc.): 23 µM (≈ 50 µg/mL); solubility (physchem; pH 8.1, Solubility Conc.): 280 µM (≈ 608 µg/mL) |
| CC(=O)N[C@H]1CCCNC(=O)C[C@@H](C(=O)N2CCC[C@H]2C(=O)N[C@@H](CO)C(=O)N[C@@H](CO)C(=O)N[C@@H](CO)C(=O)N[C@@H](CCCCN(CC(=O)O)CC(=O)O)C(=O)N[C@@H](CO)C(=O)N[C@@H](CO)C(=O)N[C@@H](CCCCNC(=O)COCCOCCNC(=O)CCCCCCCCCCCCCCCc2nnn[nH]2)C(N)=O)NC(=O)[C@H](Cc2c[nH]c3ccccc23)NC(=O)[C@H](CCCNC(=N)N)NC(=O)[C@@H](Cc2ccccc2)NC(=O)[C@H](Cc2c[nH]cn2)NC1=O [Example 28, Ac-c[Orn-His-D-Phe-Arg-Trp-Asp]-Pro-Ser-Ser-Ser-Lys(biscarboxymethyl)-Ser-Ser-Lys[(2-{2-[16-(tetrazol-5-yl)hexadecanoylamino]ethoxy}ethoxy)acetyl]-NH2] (Ac-[Orn]H[dF]RWDPSSS[Lys(CH2CO2H)2]SSK([AEEA-Palmitoyl(16-(5-tetrazolyl))])-NH2; lactam 1-6) | 0.9 | – | – | – | – | – | – | – | – | – | – | – | solubility (physchem; pH 4.8, Solubility Conc., pH 4.8, vehicle 10 mM phosphate): 71 µM (≈ 160 µg/mL); solubility (physchem; pH 5.6, Solubility Conc., pH 5.6, vehicle 10 mM phosphate): 40 µM (≈ 90.1 µg/mL); solubility (physchem; pH 6.4, Solubility Conc., pH 6.4, vehicle 10 mM phosphate): 59 µM (≈ 133 µg/mL); solubility (physchem; pH 6.7, Solubility Conc., pH 6.7, vehicle 10 mM phosphate): 126 µM (≈ 284 µg/mL); solubility (physchem; pH 7, Solubility Conc., pH 7.0, vehicle 10 mM phosphate): 382 µM (≈ 861 µg/mL); solubility (physchem; pH 7.2, Solubility Conc., pH 7.2, vehicle 10 mM phosphate): 406 µM (≈ 915 µg/mL); solubility (physchem; pH 7.5, Solubility Conc., pH 7.5, vehicle 10 mM phosphate): 410 µM (≈ 924 µg/mL); solubility (physchem; pH 7.8, Solubility Conc., pH 7.8, vehicle 10 mM phosphate): 433 µM (≈ 976 µg/mL); solubility (physchem; pH 8.1, Solubility Conc., pH 8.1, vehicle 10 mM phosphate): 415 µM (≈ 935 µg/mL) |
| CC(=O)N[C@H]1CCCNC(=O)C[C@@H](C(=O)N2CCC[C@H]2C(=O)N2CCC[C@H]2C(=O)N[C@@H](CCCNC(=N)N)C(=O)N[C@@H](CCC(=O)O)C(=O)N[C@@H](CCCCN(CC(=O)O)CC(=O)O)C(=O)N[C@@H](CCCCNC(=O)COCCOCCNC(=O)CCCCCCCCCCCCCCCCC(=O)O)C(N)=O)NC(=O)[C@H](Cc2c[nH]c3ccccc23)NC(=O)[C@H](CCCNC(=N)N)NC(=O)[C@@H](Cc2ccccc2)NC(=O)[C@H](Cc2c[nH]cn2)NC1=O [Example 34, Ac-c[Orn-His-D-Phe-Arg-Trp-Asp]-Pro-Pro-Arg-Glu-Lys(biscarboxymethyl)-Lys({2-[2-(17-carboxyheptadecanoylamino)ethoxy]ethoxy}acetyl)-NH2] (Ac-[Orn]H[dF]RWDPPRE[Lys(CH2CO2H)2]K([AEEA-C18 diacid])-NH2; lactam 1-6) | 0.8 | – | 261 (≈ 572 µg/mL) | – | 420 (≈ 920 µg/mL) | 42 (≈ 92 µg/mL) | 87 (≈ 191 µg/mL) | 165 (≈ 361 µg/mL) | 355 (≈ 778 µg/mL) | – | – | – | solubility (physchem; pH 5.5, Solubility Conc.): 27 µM (≈ 59.1 µg/mL); solubility (physchem; pH 6.6, Solubility Conc.): 62 µM (≈ 136 µg/mL); solubility (physchem; pH 8, Solubility Conc.): 360 µM (≈ 789 µg/mL) |
| CC(=O)N[C@H]1CC(=O)NCCCC[C@@H](C(=O)N2CCC[C@H]2C(=O)N2CCC[C@H]2C(=O)N[C@@H](CCCNC(=N)N)C(=O)N[C@@H](CC(=O)O)C(=O)N[C@@H](CCCCN(CC(=O)O)CC(=O)O)C(=O)N[C@@H](CCCCNC(=O)COCCOCCNC(=O)CCCCCCCCCCCCCCCc2nnn[nH]2)C(N)=O)NC(=O)[C@H](Cc2c[nH]c3ccccc23)NC(=O)[C@H](CCCNC(=N)N)NC(=O)[C@@H](Cc2ccccc2)NC(=O)[C@H](Cc2c[nH]cn2)NC1=O [Example 35, Ac-c[Asp-His-D-Phe-Arg-Trp-Lys]-Pro-Pro-Arg-Asp-Lys(biscarboxymethyl)-Lys[(2-{2-[16-(tetrazol-5-yl)hexadecanoylamino]ethoxy}ethoxy)acetyl]-NH2] (Ac-DH[dF]RWKPPRD[Lys(CH2CO2H)2]K([AEEA-Palmitoyl(16-(5-tetrazolyl))])-NH2; lactam 1-6) | 13 | – | 211 (≈ 464 µg/mL) | 537 (≈ 1180 µg/mL) | – | – | – | 126 (≈ 277 µg/mL) | 425 (≈ 935 µg/mL) | 526 (≈ 1160 µg/mL) | – | 572 (≈ 1260 µg/mL) | solubility (physchem; pH 6.4, Solubility Conc.): 24 µM (≈ 52.8 µg/mL); solubility (physchem; pH 6.8, Solubility Conc.): 44 µM (≈ 96.8 µg/mL) |
| CC(=O)N[C@H]1CCC(=O)NCCC[C@@H](C(=O)N2CCC[C@H]2C(=O)N2CCC[C@H]2C(=O)N[C@@H](CCCNC(=N)N)C(=O)N[C@@H](CC(=O)O)C(=O)N[C@@H](CCCCN(CC(=O)O)CC(=O)O)C(=O)N[C@@H](CCCCNC(=O)COCCOCCNC(=O)CCCCCCCCCCCCCCCCC(=O)O)C(N)=O)NC(=O)[C@H](Cc2c[nH]c3ccccc23)NC(=O)[C@H](CCCNC(=N)N)NC(=O)[C@@H](Cc2ccccc2)NC(=O)[C@H](Cc2cnc[nH]2)NC1=O [Example 38, Ac-c[Glu-His-D-Phe-Arg-Trp-Orn]-Pro-Pro-Arg-Asp-Lys(biscarboxymethyl)-Lys({2-[2-(17-carboxyheptadecanoylamino)ethoxy]ethoxy}acetyl)-NH2] (Ac-EH[dF]RW[Orn]PPRD[Lys(CH2CO2H)2]K([AEEA-C18 diacid])-NH2; lactam 1-6) | 0.9 | – | – | 422 (≈ 924 µg/mL) | – | – | – | – | 218 (≈ 478 µg/mL) | 282 (≈ 618 µg/mL) | 360 (≈ 789 µg/mL) | 430 (≈ 942 µg/mL) | solubility (physchem; pH 5.4, Solubility Conc.): 21 µM (≈ 46 µg/mL); solubility (physchem; pH 6.2, Solubility Conc.): 36 µM (≈ 78.9 µg/mL); solubility (physchem; pH 6.5, Solubility Conc.): 58 µM (≈ 127 µg/mL); solubility (physchem; pH 7, Solubility Conc.): 111 µM (≈ 243 µg/mL) |
